Results as given in ChEMBL document CHEMBL1201862, “PubChem BioAssay data set” (2004).
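96-well plates; 48 h exposure; 5 concentrations. Endpoints by linear interpolation between flanking doses. Not reached: highest tested concentration assigned. GI50: concentration for 50% inhibition of growth.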 The source made the active and inactive calls. Rule as the data show it: active = GI50 up to about 1.1 µM and inactive = higher.

Legend:
Assay in all cases: NCI tumour cell line growth inhibition, 48 h
NCI-H460 = system: NCI-H460
SK-MEL-28 = system: SK-MEL-28
HT-29 = system: HT-29
UACC-62 = system: UACC-62
OVCAR-5 = system: OVCAR-5
OVCAR-3 = system: OVCAR-3
PC-3 = system: PC-3
HOP-92 = system: HOP-92
NCI/ADR-RES = system: NCI/ADR-RES
MCF7 = system: MCF7
T47D = system: T47D
HCC 2998 = system: HCC 2998
MDA-MB-435 = system: MDA-MB-435
IGROV-1 = system: IGROV-1
Malme-3M = system: Malme-3M
SR = system: SR
ACHN = system: ACHN
U-251 = system: U-251
SNB-19 = system: SNB-19
HCT-116 = system: HCT-116

SMILES | GI50 (NCI-H460) | GI50 (SK-MEL-28) | GI50 (HT-29) | GI50 (UACC-62) | GI50 (OVCAR-5) | GI50 (OVCAR-3) | GI50 (PC-3) | GI50 (HOP-92) | GI50 (NCI/ADR-RES) | GI50 (MCF7) | GI50 (T47D) | GI50 (HCC 2998) | GI50 (MDA-MB-435) | GI50 (IGROV-1) | GI50 (Malme-3M) | GI50 (SR) | GI50 (ACHN) | GI50 (U-251) | GI50 (SNB-19) | GI50 (HCT-116)
CC1=NN(C(=O)c2ccncc2)C(=O)C1/N=N/c1ccc2ccccc2c1 (stereo not given) | 21.5 µM (inactive) | > 100 µM (inactive) | 11.7 µM (inactive) | 44.2 µM (inactive) | > 60.7 µM (inactive) | 28.1 µM (inactive) | > 100 µM (inactive) | > 100 µM (inactive) | 13.7 µM (inactive) | 5.32 µM (inactive) | > 100 µM (inactive) | 3.03 µM (inactive) | 3.4 µM (inactive) | 22.9 µM (inactive) | > 72.6 µM (inactive) | 5.3 µM (inactive) | > 100 µM (inactive) | > 91 µM (inactive) | > 100 µM (inactive) | 32.7 µM (inactive)
CC(O)(C(=O)N(O)c1ccc(Cl)cc1)c1ccc(Cl)cc1 (stereo not given) | 34.2 µM (inactive) | 33.3 µM (inactive) | 31 µM (inactive) | 31.9 µM (inactive) | 37.9 µM (inactive) | 25.2 µM (inactive) | 22.1 µM (inactive) | 20.3 µM (inactive) | 25.6 µM (inactive) | 35.4 µM (inactive) | 31.6 µM (inactive) | 13 µM (inactive) | 24.7 µM (inactive) | 19.9 µM (inactive) | 28.1 µM (inactive) | 13.8 µM (inactive) | 18.7 µM (inactive) | 23.6 µM (inactive) | 48.2 µM (inactive) | 28.4 µM (inactive)
Cc1ccc(S(=O)(=O)N/N=C2/CC3CCC4CC2CC34)cc1 (stereo not given) | > 100 µM (inactive) | > 100 µM (inactive) | > 100 µM (inactive) | > 100 µM (inactive) | > 100 µM (inactive) | > 100 µM (inactive) | > 100 µM (inactive) | > 100 µM (inactive) | > 100 µM (inactive) | > 100 µM (inactive) | 81.1 µM (inactive) | > 100 µM (inactive) | > 100 µM (inactive) | > 100 µM (inactive) | > 100 µM (inactive) | > 100 µM (inactive) | > 100 µM (inactive) | > 100 µM (inactive) | > 100 µM (inactive) | > 100 µM (inactive)
CN(CCNCc1cn(C)c2c1ccc1ccccc12)CCNCc1cn(C)c2c1ccc1ccccc12 | 0.583 µM (active) | 1.43 µM (inactive) | 1.61 µM (inactive) | 1.67 µM (inactive) | 1.74 µM (inactive) | 1.84 µM (inactive) | 1.47 µM (inactive) | 1.6 µM (inactive) | 1.54 µM (inactive) | 0.333 µM (active) | 1.86 µM (inactive) | 0.301 µM (active) | 1.78 µM (inactive) | 1.6 µM (inactive) | 1.87 µM (inactive) | 1.04 µM (active) | 1.63 µM (inactive) | 0.9 µM (active) | 1.39 µM (inactive) | 1.45 µM (inactive)
CN(C)CC1CN(C(=O)Nc2ccccc2)C(=N)O1 (stereo not given) | > 100 µM (inactive) | > 100 µM (inactive) | > 100 µM (inactive) | > 100 µM (inactive) | > 100 µM (inactive) | > 100 µM (inactive) | > 100 µM (inactive) | > 100 µM (inactive) | > 100 µM (inactive) | > 100 µM (inactive) | > 100 µM (inactive) | > 100 µM (inactive) | > 100 µM (inactive) | > 100 µM (inactive) | > 100 µM (inactive) | > 100 µM (inactive) | > 100 µM (inactive) | > 100 µM (inactive) | > 100 µM (inactive) | > 100 µM (inactive)
C[C@H](CCC(=O)NCCS(=O)(=O)O)[C@H]1CC[C@H]2[C@@H]3CC[C@@H]4C[C@H](O)CC[C@]4(C)[C@H]3CC[C@]12C | > 100 µM (inactive) | > 100 µM (inactive) | > 100 µM (inactive) | > 100 µM (inactive) | > 100 µM (inactive) | > 100 µM (inactive) | > 100 µM (inactive) | > 100 µM (inactive) | > 100 µM (inactive) | > 100 µM (inactive) | > 100 µM (inactive) | > 100 µM (inactive) | > 100 µM (inactive) | > 100 µM (inactive) | > 100 µM (inactive) | 28.7 µM (inactive) | > 100 µM (inactive) | > 100 µM (inactive) | > 100 µM (inactive) | > 100 µM (inactive)
O=C(Nc1ccc(Cl)cc1)c1cc(S(=O)(=O)Nc2n[nH]c(Nc3ccc4ccccc4c3)n2)c(SSc2cc(Cl)c(C(=O)Nc3ccc(Cl)cc3)cc2S(=O)(=O)Nc2n[nH]c(Nc3ccc4ccccc4c3)n2)cc1Cl | 26.7 µM (inactive) | 21.8 µM (inactive) | 20.6 µM (inactive) | 22.9 µM (inactive) | 20.5 µM (inactive) | 26.2 µM (inactive) | 24.4 µM (inactive) | 28.2 µM (inactive) | 30.8 µM (inactive) | 25.8 µM (inactive) | 3.2 µM (inactive) | 17.9 µM (inactive) | 30.3 µM (inactive) | 21.7 µM (inactive) | 21.6 µM (inactive) | 23.7 µM (inactive) | 21.6 µM (inactive) | 23.7 µM (inactive) | 21.3 µM (inactive) | 18.6 µM (inactive)
N=C(N)N/N=C/c1c(-c2ccc([N+](=O)[O-])cc2)nc2sc(Cl)cn12 | 1.73 µM (inactive) | 1.69 µM (inactive) | 1.18 µM (inactive) | 1.6 µM (inactive) | 1.21 µM (inactive) | 1.27 µM (inactive) | 1.12 µM (active) | 1.73 µM (inactive) | 1.46 µM (inactive) | 0.52 µM (active) | 0.92 µM (active) | 0.26 µM (active) | 0.902 µM (active) | 1.78 µM (inactive) | 1.47 µM (inactive) | 0.0731 µM (active) | 1.27 µM (inactive) | 0.418 µM (active) | 0.667 µM (active) | 0.223 µM (active)
O=C(NC(c1ccccc1)C(O)C(=O)OCc1ccc2c(c1)C(=O)c1ccccc1C2=O)c1ccccc1 (stereo not given) | 14.9 µM (inactive) | 28.1 µM (inactive) | 61.4 µM (inactive) | 14.7 µM (inactive) | 58.7 µM (inactive) | 12.6 µM (inactive) | 17.2 µM (inactive) | 3.15 µM (inactive) | 4.35 µM (inactive) | 17.7 µM (inactive) | 15.2 µM (inactive) | 39.6 µM (inactive) | 34.4 µM (inactive) | 18.5 µM (inactive) | 11.4 µM (inactive) | 57.9 µM (inactive) | 9.31 µM (inactive) | 5.46 µM (inactive) | 5.47 µM (inactive) | 3.94 µM (inactive)
Fc1ccc2c(c1)nc1n2C(c2c(Cl)cccc2Cl)SC1 (stereo not given) | 8.17 µM (inactive) | 10.8 µM (inactive) | 16 µM (inactive) | 11.8 µM (inactive) | 15.5 µM (inactive) | 12.9 µM (inactive) | 14.7 µM (inactive) | 6.87 µM (inactive) | 13.4 µM (inactive) | 15.1 µM (inactive) | 14.2 µM (inactive) | 15.7 µM (inactive) | 11.4 µM (inactive) | 14.1 µM (inactive) | 13 µM (inactive) | 3.94 µM (inactive) | 16.9 µM (inactive) | 13.1 µM (inactive) | 14.1 µM (inactive) | 6.41 µM (inactive)
